Target: T1, MenD (Escherichia coli, UniProt P17109)
T1 sequence (P17109 1-556): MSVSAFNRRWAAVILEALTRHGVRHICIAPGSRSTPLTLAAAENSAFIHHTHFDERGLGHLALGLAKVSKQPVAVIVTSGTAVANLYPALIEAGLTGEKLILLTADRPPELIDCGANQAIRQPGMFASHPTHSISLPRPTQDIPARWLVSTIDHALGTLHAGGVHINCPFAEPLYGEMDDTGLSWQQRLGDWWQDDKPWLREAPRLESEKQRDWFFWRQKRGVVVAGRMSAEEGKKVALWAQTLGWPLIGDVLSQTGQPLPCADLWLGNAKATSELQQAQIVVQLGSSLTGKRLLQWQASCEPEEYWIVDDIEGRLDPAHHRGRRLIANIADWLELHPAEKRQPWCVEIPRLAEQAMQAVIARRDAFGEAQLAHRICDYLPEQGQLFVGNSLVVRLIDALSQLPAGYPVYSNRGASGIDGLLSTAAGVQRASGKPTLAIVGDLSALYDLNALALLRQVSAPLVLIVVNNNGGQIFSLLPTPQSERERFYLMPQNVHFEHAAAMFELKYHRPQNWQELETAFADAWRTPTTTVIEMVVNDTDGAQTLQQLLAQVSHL
Assay: MenD activity assay, OD278 decrease
Type: biochemical
Conditions: 66 nM MenD, 50 μM thiamine pyrophosphate, 660 μM 2-ketoglutarate, 5 mM MgSO4, pH 8.0; chorismate:isochorismate equilibrium mixture

For `C=C(O[C@H]1C=CC=C(C(=O)O)[C@@H]1O)C(=O)O` [isochorismate], the “MenD activity assay, OD278 decrease” value was “initial velocities were measured as decrease in OD278 upon MenD consumption of isochorismate”.
